Measurements: US9014457B2, “Quantifying cell death” (UCL Business PLC, priority 2009, dated 2015)
“Also recorded” adds a separate entry of the source. Where two headings read alike, the source gives them in different places.

Columns and labels:
cortical neurons = conditions: cited from earlier work
RGC [1] = conditions: rat, in vivo; cited from earlier work
[2] = in comparison to 360° laser trabeculoplasty; cited from earlier work
RGC apoptosis = test: DARC in vivo imaging of OHT rat eyes, topical CoQ10; conditions: topical on Day 0, 1, 7, 21 & 42; at 3 & 6 weeks after elevated IOP; vs control
Text: FIG. 14B DARC in vivo imaging of OHT rat eyes at 3 weeks after elevated intraocular pressure (IOP) showing increased RGC apoptosis (white spots) in Control (A) compared to CoQ10-treated (B) eyes.

Cyclophilin D = test: Histological cross sections of retina stained for Cyclophilin D, OHT rat eyes; format: in vivo
[3] = in vivo; cited from earlier work
[4] = tested on: retina autofluorescence (NADH, FAD); conditions: intravitreal administration
Text: Detection of FCCP-induced retinal metabolic changes in vivo in a mouse eye.

[5] = tested on: mitochondrial membrane potential in the retina; test: Mitochondrial membrane potential (MMP) in mouse eye in vivo, Rho123 fluorescence
Method: FIG. 11B. Early investigations show the effects of intravitreal rotenone on mitochondrial membrane potential (MMP) in a mouse eye in vivo.
FIG. 11C. Using the same analysis, we looked at the effects of Aβ25-35 on MMP in vivo in a mouse eye. Rho123 is a fluorescent probe, used to detect the changes in mitochondrial fluorescent density. […] The dashed line in C represents baseline fluorescence before Rho123 was injected

[6] = tested on: ROS production in the retina; test: ROS production in mouse retina in vivo visualized with DHE; conditions: intravitreal; vs vehicle/control eye
Method: FIG. 12B. The effects of rotenone on ROS production in mouse retina in vivo. ROS production visualized with DHE (dihydroethidium). DHE is a non-fluorescent agent, reacting with ROS intracellularly to produce a fluorescent oxidative product which can be detected. Rotenone (50 uM, 1 ul) was intravitreally injected into the one eye (C57) and the same volume of vehicle (saline) injected into the contralateral eye. DHE (1 ul) was then injected intravitreally and both eyes imaged to detect ROS production using a SLO machine.
FIG. 12C. The effects of PMA in producing ROS in mouse retina in vivo. PMA (50 ug/ml, 1 ul) was injected intravitreally into the one eye and saline (1 ul) into the contralateral eye. DHE (1 ul) was simultaneously injected for detecting ROS production.
FIG. 12D. The effects of Aβ25-35 on ROS production in vivo. DHE was intravitreally injected into the both eyes of a mouse to detect ROS production.

control cells = conditions: cited from earlier work
RGC [7] = test: Staurosporine (SSP)-induced RGC apoptosis model, time-lapse in vivo imaging; design: species or system rat
Method: For analysis of staurosporine-induced RGC apoptosis, 14 DA rats received 0.5 μg of intravitreal staurosporine (SSP) in 5 μl phosphate-buffered saline (PBS); both Sigma Aldrich UK, to induce RGC apoptosis as previously described (Cordeiro et al., 2004). Animals were imaged immediately for up to 6 hours, after which they were killed for histology.
Using a method the inventors have recently described, rats were given 2.5 μg of intravitreal Alexa Fluor 488 labelled annexin V in 5 μl PBS for identification of RGC apoptosis, 2 hours before in vivo imaging (Cordeiro et al., 2004). For mice, the inventors used 1 μl of a 0.25 mg/ml solution of IR-labelled annexin (Annexin-IR) in intravitreal injections as previously described (Schmitz-Valckenberg et al., 2008). […]
All rats had in vivo retinal imaging performed at regular and set intervals after experimental treatment, using a prototype Zeiss confocal scanning laser ophthalmoscope (cSLO), as previously described (Cordeiro et al., 2004; Maass et al., 2007). […] Colour and raw scatter plots of annexin and PI fluorescence intensity were constructed, so data could be analysed in a similar manner to data derived by in vitro FACS analysis. […] Fluorescence intensity counts derived from raw scatter plots were used to quantify each phase of cell death. […]

RGC [8] = conditions: previously established; cited from earlier work
cortical astrocytes = conditions: 1 mM glutamate or 10 mM methyl-succinate; cited from earlier work
RGC [9] = test: Abeta (Aβ25-35)-induced RGC death model, in vivo cSLO imaging with annexin V and PI; design: species or system mouse
Method: For the analysis of Abeta, freshly made Aβ25-35 (Sigma-Aldrich, 3.40 nmol) (Dahlgren et al., 2002) was intravitreally injected into C57 mice (n=10) (Maass et al., 2007). Animals were imaged at 72 hours. For AD 3× Tg-AD studies, 4 eyes (all female, 14 months) with 2 eyes from aged control mice (PS1KI; female, 18 months) were assessed. 3× Tg-AD and control PS1KI mice were obtained from a colony (maintained at CeSI) established after a generous gift of Frank Laferla. Intravitreal phorbol myristate acetate (1 μl of 10 μg/ml) was administered to left eyes of 3× Tg-AD animals, at the same time as annexin V and PI.
Using a method the inventors have recently described, rats were given 2.5 μg of intravitreal Alexa Fluor 488 labelled annexin V in 5 μl PBS for identification of RGC apoptosis, 2 hours before in vivo imaging (Cordeiro et al., 2004). For mice, the inventors used 1 μl of a 0.25 mg/ml solution of IR-labelled annexin (Annexin-IR) in intravitreal injections as previously described (Schmitz-Valckenberg et al., 2008).
In order to identify necrotic RGCs in rats (2 μl) and mice (1 μl), propidium iodide (PI; 0.4 mg/ml, 1% solution, Sigma-Aldrich, Dorset UK) was administered intravitreally at the same time as annexin, 2 hours before in vivo imaging. PI intercalates into nucleic acids, binding to double-stranded DNA, but only crosses the plasma membrane of non-viable cells. Cells that have lost membrane integrity are thus identified by fluorescent red PI staining throughout the nuclei.
In mice, the inventors used instrumentation as previously described (Maass et al., 2007; Schmitz-Valckenberg et al., 2008), with a modified cSLO (Heidelberg Retina Angiograph 2, Heidelberg Engineering, Dossenheim, Germany) and a wide-field lens (55°). The fluorescein angiogram (488 nm argon laser) and indocyanine green (IR 790 nm diode laser) settings were used to detect PI and IR-labelled annexin respectively. The same software was used to analyse video sequenced images as described before with whole retinal monochrome images from each eye recorded and colourised. Dual-color images were produced by combining each of the grayscale images from the cSLO into the red (PI), and green (IR annexin) of an RGB color image.
The left eye of each animal was treated with intravitreal 0.40 nmol MK801 at the same time as Abeta. Wide-angle retinal images were recorded 2 hours following intravitreal annexin (green) and PI (red), as previously described (Guo at al., 2006).
To assess the relative levels of early apoptosis, late apoptosis and necrosis the inventors studied the co-localization of PI and annexin V using ImageJ software with the Intensity Correlation Analysis plugin (Li et al., 2004). Colour and raw scatter plots of annexin and PI fluorescence intensity were constructed from plugin-generated data for each animal. Corresponding scatter plots (blue) from the eyes shown in FIG. 8a-b are illustrated in FIG. 8c-d. The data were analysed in a similar manner to data derived by in vitro FACS analysis, with four quadrants (midlines shaded in colour overlay as red, green, blue and yellow) enabling separation of the different phases of cell death as annexin V positive (early apoptosis, green), annexin V and PI double positive (late apoptosis, yellow) and PI positive (necrosis, red). Thresholds were set automatically by the plugin for each analysis of each eye. The inventors then used fluorescence intensity counts from the raw scatter plots to quantify each phase of cell death.
To further assess the analytical power of the technique, the inventors next investigated whether the level of oxidative stress in Abeta-treated eyes influenced the phase of cell death and whether this was possible to visualize in vivo. […] FIG. 8f-g are taken from the right untreated (F) and left PMA-treated (G) eye of an animal treated 72 hours previously with 3.40 nmol Aβ25-35. […]

[10] = tested on: calcium signals in the retina; test: Calcium signals in vivo in a mouse eye, Fura red; conditions: ten minutes after 5 nmol; vs pre-treatment, p<0.001
Text: FIG. 13B. The effects of Aβ25-35 on calcium signals in vivo in a mouse eye. […] Ten minutes after Aβ25-35 (5 nmol) application (as shown D) however, a stronger fluorescent signal was detected in the RGCL (C).

[11] = tested on: calcium signal in the retina; test: Calcium transients in calcium transgenic mouse eye (FCIPs) in vivo; conditions: intravitreal; vs baseline
Text: FIG. 13C Calcium transgenic mice with genetically-encoded fluorescent Ca2+ indicator proteins (FCIPs) were imaged in vivo. Aβ25-35-induced calcium transients in a calcium transgenic mouse eye. […] Analysis of the fluorescent signal after Aβ injection at t=o, is shown graphically with fluorescence seen in the areas Identified by coloured boxes in inset (D,E).

RGC [12] = conditions: previously established; cited from earlier work; remark: listed apart in the source
RGC [13] = conditions: topical application; cited from earlier work
[14] = human, in vivo; cited from earlier work

C[C@]12CC[C@@H]3c4ccc(O)cc4CC[C@H]3[C@@H]1CC[C@@H]2O [17β-estradiol]
neuronal integrity and function (cortical neurons): increased

Brc1c(NC2=NCCN2)ccc2nccnc12 [Brimonidine]
RGC survival (RGC [1]): positive effect | visual field deterioration [2]: reduced

COC1=C(OC)C(=O)C(C/C=C(\C)CC/C=C(\C)CC/C=C(\C)CC/C=C(\C)CC/C=C(\C)CC/C=C(\C)CC/C=C(\C)CC/C=C(\C)CC/C=C(\C)CCC=C(C)C)=C(C)C1=O [CoQ10, Ubiquinone]
RGC apoptosis (RGC apoptosis): significantly reduced | Cyclophilin D (CyD) in retina, histological grading (Cyclophilin D; 3 weeks after induction of OHT): increased; also recorded: significant increase | Cyclophilin D (CyD) in retina, histological grading (Cyclophilin D; 12 weeks after elevated IOP): not at 12 weeks | neuroprotection [3]: highly effective

N#CC(C#N)=NNc1ccc(OC(F)(F)F)cc1 [FCCP, Carbonylcyanide-p-trifluoromethoxy-phenylhydrazone]
real time autofluorescence in the retina [4]: increase

C=C(C)[C@H]1Cc2c(ccc3c2O[C@@H]2COc4cc(OC)c(OC)cc4[C@@H]2C3=O)O1 [Rotenone]
mitochondrial membrane depolarization (Rho123 signal) ([5]; intravitreal 20 uM, 1 ul, vs vehicle control): significant mitochondrial membrane depolarization | ROS production in the retina (DHE fluorescence) [6]: stronger fluorescent signals of ROS production | ROS production (MitoSox) (control cells): significant increase

CN[C@@H]1C[C@H]2O[C@@](C)([C@@H]1OC)n1c3ccccc3c3c4c(c5c6ccccc6n2c5c31)C(=O)NC4 [SSP, staurosporine]
cell death profile (phases) at time of peak apoptosis (RGC [7]; 2 h, co-localization scatter plot analysis): significantly more cells in the late phase of apoptosis; also recorded: significantly more RGCs in the phases of late apoptosis | PI staining over time (RGC [7]; SSP-treated rat eye, time-lapse video over 5 hours): clear increase | time point of maximal apoptosis (RGC [8]): 2 h

N[C@@H](CCC(=O)O)C(=O)O [glutamate]
slow progressive mitochondrial depolarization in response to Aβ 25-35 (cortical astrocytes): abolished almost completely

Aβ25-35: amyloid beta peptide fragment 25-35 (Sigma-Aldrich), induces RGC apoptosis (GSNKGAIIGLM; Amyloid-beta protein 42; UniProt P05067 696-706, looked up, fragment)
cell death profile (phases) at time of peak apoptosis (RGC [9]; 72 h, co-localization scatter plot analysis, listed as Abeta): significantly more cells in the late phase of apoptosis; also recorded: significantly more RGCs in the phases of late apoptosis | RGC death (RGC [9]; 72 hours after intravitreal administration of 3.40 nmol): Significant RGC death | MMP in the retina (Rho123) ([5]; vs baseline, few minutes delay, p<0.01): significant loss | ROS production in the retina (DHE fluorescence) [6]: significant increase of ROS production | calcium signals in the retina (Fura red) [10]: significant increase | fluorescent calcium signal in the retina [11]: immediate fluorescent calcium signal | time point of maximal apoptosis (RGC [12]): 72 h

NGF: nerve growth factor
RGC apoptosis (RGC [13]): reducing | functional effect in patients [14]: neuroprotective effects functionally
